Assay results: ChEMBL document CHEMBL4145544, “Discovery and optimization of 1-(1H-indol-1-yl)ethanone derivatives as CBP/EP300 bromodomain inhibitors for the treatment of castration-resistant prostate cancer” (Eur J Med Chem, 2018); call rule not given here

biological target: CREB-binding protein (Homo sapiens, UniProt Q92793); experiment: Inhibition of biotinylated-H4KAc4 binding to human His6-tagged CBP (R1081 to G1197 residues) expressed in Escherichia coli BL21(DE3) after 2.5 hrs by luminescence-based AlphaScreen assay; conditions: not given
Sequence (Q92793 whole entry, the tested form may be a part): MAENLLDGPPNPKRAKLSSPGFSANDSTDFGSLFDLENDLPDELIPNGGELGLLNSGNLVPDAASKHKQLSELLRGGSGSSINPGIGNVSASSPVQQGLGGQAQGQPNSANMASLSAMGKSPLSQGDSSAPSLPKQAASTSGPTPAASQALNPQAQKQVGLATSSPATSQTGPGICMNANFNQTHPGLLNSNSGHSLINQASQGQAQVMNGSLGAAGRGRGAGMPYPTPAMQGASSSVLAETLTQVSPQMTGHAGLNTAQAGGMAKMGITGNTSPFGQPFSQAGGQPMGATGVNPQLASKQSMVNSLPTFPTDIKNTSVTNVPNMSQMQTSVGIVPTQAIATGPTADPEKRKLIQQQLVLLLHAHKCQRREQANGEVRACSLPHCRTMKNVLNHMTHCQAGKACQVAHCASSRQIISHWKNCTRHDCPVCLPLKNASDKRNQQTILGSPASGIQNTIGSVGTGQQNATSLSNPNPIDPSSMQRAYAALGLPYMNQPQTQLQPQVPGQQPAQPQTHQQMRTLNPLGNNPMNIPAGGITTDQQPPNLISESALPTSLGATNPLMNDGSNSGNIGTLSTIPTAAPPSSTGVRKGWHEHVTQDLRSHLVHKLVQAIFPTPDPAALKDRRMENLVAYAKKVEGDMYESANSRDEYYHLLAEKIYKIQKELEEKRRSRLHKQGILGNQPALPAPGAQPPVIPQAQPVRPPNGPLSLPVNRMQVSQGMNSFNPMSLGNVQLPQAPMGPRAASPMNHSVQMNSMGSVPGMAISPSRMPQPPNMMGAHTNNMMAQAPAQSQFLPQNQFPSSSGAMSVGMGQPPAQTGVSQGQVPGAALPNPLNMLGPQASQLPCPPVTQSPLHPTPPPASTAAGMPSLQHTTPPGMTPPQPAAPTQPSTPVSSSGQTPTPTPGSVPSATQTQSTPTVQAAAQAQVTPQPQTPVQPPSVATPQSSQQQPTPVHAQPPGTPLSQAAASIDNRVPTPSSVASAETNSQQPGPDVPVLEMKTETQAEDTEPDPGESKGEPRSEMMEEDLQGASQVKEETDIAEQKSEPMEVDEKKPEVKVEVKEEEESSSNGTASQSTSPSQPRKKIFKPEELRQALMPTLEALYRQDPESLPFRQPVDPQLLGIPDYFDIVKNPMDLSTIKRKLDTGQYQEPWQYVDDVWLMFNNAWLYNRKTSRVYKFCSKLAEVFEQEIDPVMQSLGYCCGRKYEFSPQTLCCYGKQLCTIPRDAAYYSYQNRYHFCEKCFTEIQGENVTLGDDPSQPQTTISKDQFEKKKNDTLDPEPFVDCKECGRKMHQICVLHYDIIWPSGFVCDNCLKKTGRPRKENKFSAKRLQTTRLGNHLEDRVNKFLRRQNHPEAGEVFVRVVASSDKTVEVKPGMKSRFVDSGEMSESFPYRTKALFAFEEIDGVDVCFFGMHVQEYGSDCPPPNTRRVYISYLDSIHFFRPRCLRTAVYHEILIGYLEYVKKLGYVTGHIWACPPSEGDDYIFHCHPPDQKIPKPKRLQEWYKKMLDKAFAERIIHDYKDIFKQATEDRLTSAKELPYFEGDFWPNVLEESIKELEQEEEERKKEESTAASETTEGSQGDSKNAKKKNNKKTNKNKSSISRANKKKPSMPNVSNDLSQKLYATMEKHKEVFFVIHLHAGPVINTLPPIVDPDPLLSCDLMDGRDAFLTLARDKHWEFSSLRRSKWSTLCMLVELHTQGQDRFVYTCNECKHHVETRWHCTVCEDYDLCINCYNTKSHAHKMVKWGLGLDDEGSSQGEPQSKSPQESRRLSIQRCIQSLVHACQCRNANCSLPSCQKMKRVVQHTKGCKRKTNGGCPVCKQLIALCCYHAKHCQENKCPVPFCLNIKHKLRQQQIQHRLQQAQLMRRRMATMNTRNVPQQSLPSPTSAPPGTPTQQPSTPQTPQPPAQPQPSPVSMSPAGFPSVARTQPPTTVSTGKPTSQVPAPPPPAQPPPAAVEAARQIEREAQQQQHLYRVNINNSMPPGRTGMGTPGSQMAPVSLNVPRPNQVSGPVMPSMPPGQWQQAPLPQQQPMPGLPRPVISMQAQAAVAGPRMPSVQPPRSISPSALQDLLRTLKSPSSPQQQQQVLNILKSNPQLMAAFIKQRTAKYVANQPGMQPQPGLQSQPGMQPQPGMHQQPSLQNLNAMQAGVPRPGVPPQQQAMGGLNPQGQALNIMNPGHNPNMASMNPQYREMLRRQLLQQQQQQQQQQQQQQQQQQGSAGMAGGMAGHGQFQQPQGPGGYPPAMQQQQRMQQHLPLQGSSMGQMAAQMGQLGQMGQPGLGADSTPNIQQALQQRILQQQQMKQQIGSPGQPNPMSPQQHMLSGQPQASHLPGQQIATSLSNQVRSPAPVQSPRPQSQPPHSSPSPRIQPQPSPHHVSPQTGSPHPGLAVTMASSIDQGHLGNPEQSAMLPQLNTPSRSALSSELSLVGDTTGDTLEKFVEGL

| SMILES | IC50 |
| --- | --- |
| COc1ccc2c(c1)c(C(=O)Nc1cc(C(=O)O)cc(-c3ccco3)c1)cn2C(C)=O | 0.14 µM |
| CC(=O)n1cc(C(=O)Nc2cccc(C(=O)O)c2)c2ccccc21 | 1.69 µM |

biological target: Histone acetyltransferase p300 (Homo sapiens, UniProt Q09472); experiment: Inhibition of biotinylated-H4KAc4 binding to human His6-tagged EP300 (A1040 to G1161 residues) expressed in Escherichia coli BL21(DE3) after 2.5 hrs by luminescence-based AlphaScreen assay; conditions: not given

| SMILES | IC50 |
| --- | --- |
| COc1ccc2c(c1)c(C(=O)Nc1cc(C(=O)O)cc(-c3ccco3)c1)cn2C(C)=O | 1.78 µM |
| CC(=O)n1cc(C(=O)Nc2cccc(C(=O)O)c2)c2ccccc21 | 5.55 µM |

system: CWR22R; conditions: not given

| SMILES | IC50 |
| --- | --- |
| COc1ccc2c(c1)c(C(=O)Nc1cc(C(=O)O)cc(-c3ccco3)c1)cn2C(C)=O | Not Active |

biological target: T1, Bromodomain-containing protein 9 (Homo sapiens, UniProt Q9H8M2); experiment: Inhibition of biotinylated-H4KAc4 binding to human His6-tagged BRD9 (L14 to Q134 residues) expressed in Escherichia coli BL21(DE3) after 2.5 hrs by luminescence-based AlphaScreen assay; conditions: not given
T1 sequence (Q9H8M2 whole entry): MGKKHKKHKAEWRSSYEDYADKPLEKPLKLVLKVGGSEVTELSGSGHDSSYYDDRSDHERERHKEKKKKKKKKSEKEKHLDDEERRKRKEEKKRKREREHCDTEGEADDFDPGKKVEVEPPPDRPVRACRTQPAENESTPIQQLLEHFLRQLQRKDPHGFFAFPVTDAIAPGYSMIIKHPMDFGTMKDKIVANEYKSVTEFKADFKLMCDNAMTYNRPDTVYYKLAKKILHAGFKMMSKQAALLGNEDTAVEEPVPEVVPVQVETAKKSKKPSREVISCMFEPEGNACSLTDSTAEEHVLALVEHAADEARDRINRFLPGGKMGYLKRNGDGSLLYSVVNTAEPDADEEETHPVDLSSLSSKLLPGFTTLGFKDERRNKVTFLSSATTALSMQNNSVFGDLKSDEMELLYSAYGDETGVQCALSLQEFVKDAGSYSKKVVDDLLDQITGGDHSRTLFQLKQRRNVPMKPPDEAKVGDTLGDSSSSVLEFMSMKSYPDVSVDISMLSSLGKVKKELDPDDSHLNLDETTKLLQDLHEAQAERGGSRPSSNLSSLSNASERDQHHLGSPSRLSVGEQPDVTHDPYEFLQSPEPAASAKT

| SMILES | IC50 |
| --- | --- |
| COc1ccc2c(c1)c(C(=O)Nc1cc(C(=O)O)cc(-c3ccco3)c1)cn2C(C)=O | > 20 µM |
| CC(=O)n1cc(C(=O)Nc2cccc(C(=O)O)c2)c2ccccc21 | > 20 µM |

biological target: Bromodomain-containing protein 4 (Homo sapiens, UniProt O60885); experiment: Inhibition of biotinylated-H4KAc4 binding to human His6-tagged BRD4 bromodomain-1 (N44 to E168 residues) expressed in Escherichia coli BL21(DE3) after 2.5 hrs by luminescence-based AlphaScreen assay; conditions: not given

| SMILES | IC50 |
| --- | --- |
| COc1ccc2c(c1)c(C(=O)Nc1cc(C(=O)O)cc(-c3ccco3)c1)cn2C(C)=O | > 20 µM |
| CC(=O)n1cc(C(=O)Nc2cccc(C(=O)O)c2)c2ccccc21 | > 20 µM |

biological target: Histone acetyltransferase KAT2B (Homo sapiens, UniProt Q92831); experiment: Inhibition of biotinylated-H4KAc4 binding to human His6-tagged PCAF (G715 to D831 residues) expressed in Escherichia coli BL21(DE3) after 2.5 hrs by luminescence-based AlphaScreen assay; conditions: not given
Sequence (Q92831 whole entry, the tested form may be a part): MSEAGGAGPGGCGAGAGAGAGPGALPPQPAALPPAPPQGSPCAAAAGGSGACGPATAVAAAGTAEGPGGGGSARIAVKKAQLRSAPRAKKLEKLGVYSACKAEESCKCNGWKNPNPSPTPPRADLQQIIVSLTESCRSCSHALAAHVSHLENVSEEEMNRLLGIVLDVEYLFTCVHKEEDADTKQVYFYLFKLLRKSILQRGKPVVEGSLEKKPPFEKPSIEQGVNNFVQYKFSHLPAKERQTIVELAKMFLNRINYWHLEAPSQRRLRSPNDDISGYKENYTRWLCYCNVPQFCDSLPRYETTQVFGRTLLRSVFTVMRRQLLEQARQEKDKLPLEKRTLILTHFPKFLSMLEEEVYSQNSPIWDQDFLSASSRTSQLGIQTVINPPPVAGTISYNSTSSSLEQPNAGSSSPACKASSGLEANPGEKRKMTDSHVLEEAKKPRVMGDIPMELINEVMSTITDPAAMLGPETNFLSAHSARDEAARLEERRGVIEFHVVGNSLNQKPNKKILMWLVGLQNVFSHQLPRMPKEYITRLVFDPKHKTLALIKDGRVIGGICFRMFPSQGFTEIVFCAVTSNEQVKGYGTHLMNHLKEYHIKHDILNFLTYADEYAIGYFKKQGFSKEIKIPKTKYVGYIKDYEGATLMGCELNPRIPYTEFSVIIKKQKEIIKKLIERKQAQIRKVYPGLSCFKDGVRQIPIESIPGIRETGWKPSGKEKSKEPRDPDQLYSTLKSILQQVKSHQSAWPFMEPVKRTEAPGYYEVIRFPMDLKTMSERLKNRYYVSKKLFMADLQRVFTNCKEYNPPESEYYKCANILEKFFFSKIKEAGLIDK

| SMILES | IC50 |
| --- | --- |
| COc1ccc2c(c1)c(C(=O)Nc1cc(C(=O)O)cc(-c3ccco3)c1)cn2C(C)=O | > 20 µM |
| CC(=O)n1cc(C(=O)Nc2cccc(C(=O)O)c2)c2ccccc21 | > 20 µM |

biological target: Transcription initiation factor TFIID subunit 1 (Homo sapiens, UniProt P21675); experiment: Inhibition of biotinylated-H4KAc4 binding to human His6-tagged TAF-1 (R1377 to D1503 residues) expressed in Escherichia coli BL21(DE3) after 2.5 hrs by luminescence-based AlphaScreen assay; conditions: not given
Sequence (P21675 whole entry, the tested form may be a part): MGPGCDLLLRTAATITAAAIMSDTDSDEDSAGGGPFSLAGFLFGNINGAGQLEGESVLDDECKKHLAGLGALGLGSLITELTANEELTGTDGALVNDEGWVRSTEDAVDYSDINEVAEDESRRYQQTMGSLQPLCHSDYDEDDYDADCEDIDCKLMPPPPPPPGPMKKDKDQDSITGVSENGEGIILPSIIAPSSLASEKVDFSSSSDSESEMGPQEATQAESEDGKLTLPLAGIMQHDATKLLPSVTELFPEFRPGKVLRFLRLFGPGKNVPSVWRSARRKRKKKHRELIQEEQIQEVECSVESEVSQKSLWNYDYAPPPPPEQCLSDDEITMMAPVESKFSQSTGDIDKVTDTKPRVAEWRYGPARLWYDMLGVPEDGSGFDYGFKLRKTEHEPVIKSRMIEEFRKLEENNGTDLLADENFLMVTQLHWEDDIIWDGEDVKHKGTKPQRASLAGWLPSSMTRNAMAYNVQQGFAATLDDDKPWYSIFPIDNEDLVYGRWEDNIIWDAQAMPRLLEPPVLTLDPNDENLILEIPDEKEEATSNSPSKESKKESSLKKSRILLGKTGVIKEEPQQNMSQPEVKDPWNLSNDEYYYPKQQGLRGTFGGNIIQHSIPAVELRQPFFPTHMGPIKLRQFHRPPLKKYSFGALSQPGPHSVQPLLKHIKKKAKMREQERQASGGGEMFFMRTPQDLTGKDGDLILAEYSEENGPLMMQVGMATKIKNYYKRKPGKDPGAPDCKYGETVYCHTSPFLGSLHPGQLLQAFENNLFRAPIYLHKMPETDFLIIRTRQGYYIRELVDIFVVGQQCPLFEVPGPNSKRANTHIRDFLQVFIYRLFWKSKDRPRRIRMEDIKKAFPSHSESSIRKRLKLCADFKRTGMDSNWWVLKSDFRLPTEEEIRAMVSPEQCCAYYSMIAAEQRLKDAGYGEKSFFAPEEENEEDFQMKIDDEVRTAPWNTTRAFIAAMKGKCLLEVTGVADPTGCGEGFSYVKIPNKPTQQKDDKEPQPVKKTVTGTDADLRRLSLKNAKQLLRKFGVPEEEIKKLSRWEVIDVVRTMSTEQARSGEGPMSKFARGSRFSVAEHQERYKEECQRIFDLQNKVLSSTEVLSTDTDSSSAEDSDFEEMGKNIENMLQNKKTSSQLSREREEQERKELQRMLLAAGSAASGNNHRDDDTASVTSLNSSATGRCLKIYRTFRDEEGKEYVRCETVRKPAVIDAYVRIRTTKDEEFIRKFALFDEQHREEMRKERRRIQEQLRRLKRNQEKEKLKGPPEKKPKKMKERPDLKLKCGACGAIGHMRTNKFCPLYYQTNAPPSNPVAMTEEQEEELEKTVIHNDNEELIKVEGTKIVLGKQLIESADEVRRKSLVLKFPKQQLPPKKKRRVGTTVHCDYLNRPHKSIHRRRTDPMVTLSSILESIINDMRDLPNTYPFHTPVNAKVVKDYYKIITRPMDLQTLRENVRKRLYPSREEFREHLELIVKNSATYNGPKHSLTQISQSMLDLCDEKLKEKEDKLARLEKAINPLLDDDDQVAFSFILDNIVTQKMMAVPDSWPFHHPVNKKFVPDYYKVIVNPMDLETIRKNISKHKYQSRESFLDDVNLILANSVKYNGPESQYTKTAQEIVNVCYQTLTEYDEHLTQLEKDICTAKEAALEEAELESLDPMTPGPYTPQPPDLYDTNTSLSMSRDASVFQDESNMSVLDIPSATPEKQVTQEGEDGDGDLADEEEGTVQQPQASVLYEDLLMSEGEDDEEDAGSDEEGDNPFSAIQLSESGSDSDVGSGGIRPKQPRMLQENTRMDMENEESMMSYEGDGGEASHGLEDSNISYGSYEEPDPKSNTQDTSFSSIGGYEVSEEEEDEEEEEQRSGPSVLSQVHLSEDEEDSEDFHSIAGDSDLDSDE

| SMILES | IC50 |
| --- | --- |
| COc1ccc2c(c1)c(C(=O)Nc1cc(C(=O)O)cc(-c3ccco3)c1)cn2C(C)=O | > 20 µM |
| CC(=O)n1cc(C(=O)Nc2cccc(C(=O)O)c2)c2ccccc21 | > 20 µM |

system: LNCaP; experiment: Antiproliferative activity against human LNCAP cells after 72 hrs by Cell-Titer Glo assay; format: functional, cell-based; conditions: lncap

| SMILES | IC50 |
| --- | --- |
| COc1ccc2c(c1)c(C(=O)Nc1cc(C(=O)O)cc(-c3ccco3)c1)cn2C(C)=O | Not Active |

biological target: T2, Transcription intermediary factor 1-alpha (Homo sapiens, UniProt O15164); experiment: Inhibition of biotinylated-H4KAc4 binding to human His6-tagged TIF-1 (G896 to E1014 residues) expressed in Escherichia coli BL21(DE3) after 2.5 hrs by luminescence-based AlphaScreen assay; conditions: not given
T2 sequence (O15164 whole entry): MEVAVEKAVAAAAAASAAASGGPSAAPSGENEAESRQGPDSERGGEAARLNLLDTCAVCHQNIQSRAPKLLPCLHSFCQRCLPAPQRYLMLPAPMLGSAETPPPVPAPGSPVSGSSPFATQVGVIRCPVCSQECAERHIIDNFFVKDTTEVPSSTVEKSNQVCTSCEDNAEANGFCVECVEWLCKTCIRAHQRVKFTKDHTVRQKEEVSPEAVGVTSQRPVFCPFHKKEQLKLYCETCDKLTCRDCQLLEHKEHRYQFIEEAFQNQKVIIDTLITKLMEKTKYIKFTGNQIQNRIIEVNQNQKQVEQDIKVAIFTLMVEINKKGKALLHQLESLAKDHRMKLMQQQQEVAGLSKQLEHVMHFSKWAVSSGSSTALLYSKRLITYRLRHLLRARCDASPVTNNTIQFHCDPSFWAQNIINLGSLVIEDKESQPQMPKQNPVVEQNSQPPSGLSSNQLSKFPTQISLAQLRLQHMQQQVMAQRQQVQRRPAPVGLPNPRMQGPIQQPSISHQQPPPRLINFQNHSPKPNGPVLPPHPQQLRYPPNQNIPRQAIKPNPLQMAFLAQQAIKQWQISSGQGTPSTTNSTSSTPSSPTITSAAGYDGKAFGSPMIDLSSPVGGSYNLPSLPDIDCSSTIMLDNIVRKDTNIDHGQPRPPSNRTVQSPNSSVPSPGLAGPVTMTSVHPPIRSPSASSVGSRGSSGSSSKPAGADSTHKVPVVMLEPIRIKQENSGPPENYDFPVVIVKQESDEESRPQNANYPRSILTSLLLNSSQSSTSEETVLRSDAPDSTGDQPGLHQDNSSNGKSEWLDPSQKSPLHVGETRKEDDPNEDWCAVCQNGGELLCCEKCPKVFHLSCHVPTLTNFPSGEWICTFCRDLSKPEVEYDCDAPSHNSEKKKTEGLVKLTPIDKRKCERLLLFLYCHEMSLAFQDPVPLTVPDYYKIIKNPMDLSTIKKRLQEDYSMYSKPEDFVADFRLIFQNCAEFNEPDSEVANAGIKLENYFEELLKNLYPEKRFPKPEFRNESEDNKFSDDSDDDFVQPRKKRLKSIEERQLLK

| SMILES | IC50 |
| --- | --- |
| COc1ccc2c(c1)c(C(=O)Nc1cc(C(=O)O)cc(-c3ccco3)c1)cn2C(C)=O | > 20 µM |
| CC(=O)n1cc(C(=O)Nc2cccc(C(=O)O)c2)c2ccccc21 | > 20 µM |

biological target: Bromodomain adjacent to zinc finger domain protein 2B (Homo sapiens, UniProt Q9UIF8); experiment: Inhibition of biotinylated-H4KAc4 binding to human His6-tagged BAZ2B (S1858 to S1972 residues) expressed in Escherichia coli BL21(DE3) after 2.5 hrs by luminescence-based AlphaScreen assay; conditions: not given

| SMILES | IC50 |
| --- | --- |
| COc1ccc2c(c1)c(C(=O)Nc1cc(C(=O)O)cc(-c3ccco3)c1)cn2C(C)=O | 12.2 µM |
| CC(=O)n1cc(C(=O)Nc2cccc(C(=O)O)c2)c2ccccc21 | > 20 µM |
